Reference: patent US6689922B1, “Vitamin D analogues” (Galderma Research & Development S.N.C., priority 1998, dated 2004)

Molecular target: T1, vitamin D receptors (Mus musculus, UniProt P48281)
T1 construct: the skin treated is removed and the epidermis is separated from the dermis; from tissue; host or cells: epidermis of SKH mice (in vivo, topical application)
T1 sequence (P48281 1-422): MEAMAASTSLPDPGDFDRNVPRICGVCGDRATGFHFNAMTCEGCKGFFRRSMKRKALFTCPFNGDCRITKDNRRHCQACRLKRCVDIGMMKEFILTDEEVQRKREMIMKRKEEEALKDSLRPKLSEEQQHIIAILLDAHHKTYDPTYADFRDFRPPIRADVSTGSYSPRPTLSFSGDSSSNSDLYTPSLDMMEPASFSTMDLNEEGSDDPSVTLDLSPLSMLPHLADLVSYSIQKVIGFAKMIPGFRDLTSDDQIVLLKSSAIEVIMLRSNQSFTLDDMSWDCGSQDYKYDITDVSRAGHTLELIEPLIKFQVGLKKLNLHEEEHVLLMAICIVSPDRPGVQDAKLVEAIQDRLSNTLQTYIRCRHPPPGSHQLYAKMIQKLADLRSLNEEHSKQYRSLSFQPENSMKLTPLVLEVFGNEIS
Assay: Induction of 24-Hydroxylase mRNA in the epidermis of SKH mice after a single topical application (semiquantitative PCR)
Format: in vivo
Details: for Expression of the mRNA for 24-Hydroxylase: Induction factor versus ethanol: single topical application of 50 μl to the back, epidermis 8 hours after application, normalized to GAPDH mRNA
Description: The test protocol used is the following:
SKH mice receive a single topical application of a compound according to the invention in solution in ethanol in increasing concentrations. A volume of 50 μl of the product to be tested or of the vehicle alone is applied to the back of the mice with the aid of a pipette.
A volume of 50 μl of the product to be tested or of the vehicle alone is applied to the back of the mice with the aid of a pipette.
8 hours after the topical application, the mice are humanely killed, the skin treated is removed and the epidermis is separated from the dermis. The quantification of the mRNA for 24-Hydroxylase is carried out by semiquantitative PCR.

[1] = concentration 1 % (weight/volume) in ethanol
[2] = concentration 0.1 % (weight/volume) in ethanol

| Compound | Activity (induction of 24-Hydroxylase mRNA) compared with 1,25-(OH)2-vitamin D3 (at the concentration of 1%, single topical application, SKH mice) | Expression of the mRNA for 24-Hydroxylase: Induction factor versus ethanol [1] | Expression of the mRNA for 24-Hydroxylase: Induction factor versus ethanol [2] |
| --- | --- | --- | --- |
| CC(=CC=CC(C)(C)O)c1cccc(OCc2ccc(CO)c(CO)c2)c1 [Example 4, 6-[3-(3,4-bis-Hydroxymethylbenzyloxy)phenyl]-2-methylhepta-3,5-dien-2-ol] | comparable to that of 1,25-(OH)2-vitamin D3 at 0.001% | 11 | – |
| CCC(O)(/C=C/C=C(\C)c1cccc(CCc2ccc(CO)c(CO)c2)c1)CC [Example 59, (4E,6E)-7-{3-[2-(3,4-bis-Hydroxymethylphenyl)ethyl]-phenyl}-3-ethylocta-4,6-dien-3-ol] | – | – | 20.5 |
| CCC(O)(/C=C/C=C(\C)c1cccc(C=Cc2ccc(CO)c(CO)c2)c1)CC [Example 61, (4E-6E)-7-{3-[2-(3,4-bis-Hydroxymethylphenyl}vinyl]-phenyl)-3-ethylocta-4,6-dien-3-ol] | – | 10 | – |
| CCC(O)(/C=C/C=C(\C)c1cccc(OCc2ccc(CO)c(CO)c2)c1)CC [Example 65, (4E,6E)-7-[3-(3,4-bis-Hydroxymethylbenzyloxy)phenyl]-3-ethylocta-4,6-dien-3-ol] | – | 15 | – |
| CC/C(=C\C=C\C(O)(CC)CC)c1cccc(OCc2ccc(CO)c(CO)c2)c1 [Example 68, (4E,6E)-7-[3-(3,4-bis-Hydroxymethylbenzyloxy)phenyl]-3-ethylnona-4,6-dien-3-ol] | – | – | 25 |
| CCC(O)(CC)CC/C=C(\C)c1cccc(OCc2ccc(CO)c(CO)c2)c1 [Example 72, (E)-7-[3-(3,4-bis-Hydroxymethylbenzyloxy)phenyl]-3-ethyloct-6-en-3-ol] | – | – | 17 |
| CCC(O)(/C=C/C=C(\C)c1cccc(COc2ccc(CO)c(CO)c2)c1)CC [Example 82, (4E,6E)-7-[3-(3,4-bis-Hydroxymethylphenoxy-methyl)phenyl]-3-ethylocta-4,6-dien-3-ol] | – | – | 21 |
